Test results: US20110070293A1, “Methods for the Preparation of Liposomes Comprising Docetaxel” (priority 2009, published 2011)
Like-named read-outs stand apart in the source and are kept apart here.

Key:
[1] = Solubilization of docetaxel in fatty acid, fatty acid salt or oleate liposome media; format: physicochemical; conditions: for solubility: aqueous with cosolvent or surfactant or cyclodextrin
Protocol: (§1) Docetaxel (5 mg) was added to 31 μL of oleic acid and mixed using a VORTEX®. Ethanolamine (6 μL) was subsequently added and mixed using a VORTEX®. After mixing, the sample was dispersed in 963 μL of water for injection. Docetaxel was soluble and the formulation clear at 5 mg/mL. Docetaxel remained soluble, and the formulation was stable, upon dilution (1:10 in 2.5% glycerol) up to 24 hours as analyzed by a reverse phase high performance liquid chromatography method.
(§2) Docetaxel (5.0 mg) was added to 1 mL of 0.05 M sodium oleate and mixed using a VORTEX®. Docetaxel was soluble and the formulation clear at 5.0 mg/mL. Docetaxel remained soluble, and the formulation was stable, upon dilution (1:10 in 2.5% glycerol) up to 24 hours as analyzed by a reverse phase high performance liquid chromatography method.
as §2, with “(2” for “(5.0”, “1” for “0.05”, “caprylate” for “oleate”, “by” for “using”, “2” for “5.0”, “(1:2” for “(1:10 in”
as §2, with “(7.0” for “(5.0”, “1” for “0.05”, “linoleate” for “oleate”, “7.0” for “5.0”, “(1:10” for “(1:10 in”
(§3) Docetaxel (5 mg) was added to 1 mL of pre-made liposome containing 2 mM sodium oleate and 6% soy phosphatidyl choline, 10% trehalose, pH adjusted to 5-7 using Acetic acid, mixed using a VORTEX®, and microfluidized using a Microfluidizer with 10 passes at 15,000 psi. Five additional passes with the Microfluidizer at 15,000 psi were made to incorporate all 5 mg of the drug into 1 mL of pre-made liposome. Docetaxel was soluble and the formulation was transparent at 5 mg/mL. Docetaxel remained soluble, and the formulation was stable, upon dilution (1:10 in D5W) up to 48 hours as analyzed by a reverse phase high performance liquid chromatography method.
(§4) Hydrophobic or lipophilic compounds can be solubilized directly in sodium (or any ion) salt of fatty acid dissolved in an organic solvent. The organic solvent is subsequently removed using rotary evaporation, spray drying, or any other pharmaceutically acceptable processes. The drug-sodium salt of fatty acid mixture is subsequently dispersed in water, isotonic glycerol, or any pharmaceutically acceptable isotonic solution to achieve a desired concentration of the solubilized compound. For example, docetaxel (5 mg/mL) was dissolved in 100 mM sodium oleate in 100% ethanol. Ethanol was completely evaporated using rotary evaporation at 20° C. The docetaxel-sodium oleate was reconstituted with Water For Injection (“WFI”) or 2.5% glycerol to provide 5 mg/mL, 10 mg/mL, or 20 mg/mL concentration of docetaxel.
(§5) 50 μl of Docetaxel in ethanol (100 mg/mL) was added to 1 mL of pre-made liposome containing 2 mM sodium oleate and 6% soy phosphatidyl choline, 10% trehalose and pH adjusted to 5-7 using Acetic acid, mixed using a VORTEX® and microfluidized using a Microfluidizer with 10 passes at 15,000 psi. Docetaxel was soluble and the formulation is transparent at 5 mg/mL. Docetaxel remained soluble, and the formulation was stable, upon dilution (1:10 in D5W) up to 48 hours as analyzed by a reverse phase high performance liquid chromatography method. […] The lyophilized product is reconstituted with water for injection at 5 mg, 10, or 20 mg/mL concentration, essentially free of organic solvent.

[2] = Stability of docetaxel formulations upon dilution (reverse phase HPLC) and after lyophilization; format: physicochemical; conditions: for time docetaxel remained soluble and formulation stable upon dilution: RP-HPLC
Protocol: as §1, §2
as §2, with “(2” for “(5.0”, “1” for “0.05”, “caprylate” for “oleate”, “by” for “using”, “2” for “5.0”, “(1:2” for “(1:10 in”
as §2, with “(7.0” for “(5.0”, “1” for “0.05”, “linoleate” for “oleate”, “7.0” for “5.0”, “(1:10” for “(1:10 in”
as §3, §4, §5

[3] = cited from earlier work
[4] = Incorporation of docetaxel into liposome; format: physicochemical
Protocol: As provided herein, the sequence of the addition of docetaxel results in enhanced solubility of the docetaxel. The conventional method of incorporating a hydrophobic drug into liposome is by adding the drug to lipid before liposome preparation. See, e.g., Immordino, M. L. et al., Journal of Controlled Release, 2003, 91: 417-429. By the conventional process, the incorporation of the drug is only 0.3 to 0.7 mg/mL. When docetaxel is added after liposome preparation, the incorporation of docetaxel is increased from 0.3 mg/mL to 5 mg/mL, which is more than 10 fold increase in solubility of the drug in lipid alone.
In the conventional liposome preparation, the drug to lipid molar percent ratio is 4-6% with the incorporation of drug into liposome efficiency is only 56%. See Immordino, M. L. et al., Journal of Controlled Release, 2003, 91: 417-429.

[5] = conventional liposome preparation (Immordino et al.)
[6] = docetaxel added to pre-made liposome

CC(=O)O[C@@]12CO[C@@H]1C[C@H](O)[C@@]1(C)C(=O)[C@H](O)C3=C(C)[C@@H](OC(=O)[C@H](O)[C@@H](NC(=O)OC(C)(C)C)c4ccccc4)C[C@@](O)([C@@H](OC(=O)c4ccccc4)[C@H]21)C3(C)C [Docetaxel]
solubility ([1]; 0.05 M sodium oleate solution, Example 7: 0.05 M sodium oleate, read-out: concentration at which docetaxel was soluble and formulation clear): 5000 µg/mL
solubility ([1]; 1 M sodium caprylate solution, Example 8: 1 M sodium caprylate, read-out: concentration at which docetaxel was soluble and formulation clear): 2000 µg/mL
solubility ([1]; 1 M sodium linoleate solution, Example 9: 1 M sodium linoleate, read-out: concentration at which docetaxel was soluble and formulation clear): 7000 µg/mL
concentration at which docetaxel was soluble and formulation transparent ([1]; Example 12: docetaxel in ethanol added to pre-made liposome, 2 mM sodium oleate, 6% soy phosphatidyl choline, 10% trehalose, pH 5-7): 5000 µg/mL
solubility ([1]; Example 10: solid docetaxel in pre-made liposome, 2 mM sodium oleate, 6% soy phosphatidyl choline, 10% trehalose, pH 5-7, read-out: concentration at which docetaxel was soluble and formulation transparent): 5000 µg/mL
solubility ([1]; oleic acid / ethanolamine dispersion in water for injection, Example 6: oleic acid, ethanolamine, water for injection, read-out: concentration at which docetaxel was soluble and formulation clear): 5000 µg/mL
time docetaxel remained soluble and formulation stable upon dilution ([2]; Example 6: oleic acid/ethanolamine, dilution 1:10 in 2.5% glycerol): up to 24 hours
time docetaxel remained soluble and formulation stable upon dilution ([2]; Example 7: 0.05 M sodium oleate, dilution 1:10 in 2.5% glycerol): up to 24 hours
time docetaxel remained soluble and formulation stable upon dilution ([2]; Example 8: 1 M sodium caprylate, dilution 1:2 2.5% glycerol): up to 24 hours
time docetaxel remained soluble and formulation stable upon dilution ([2]; Example 9: 1 M sodium linoleate, dilution 1:10 2.5% glycerol): up to 24 hours
time docetaxel remained soluble and formulation stable upon dilution ([2]; Example 10: oleate liposome, dilution 1:10 in D5W): up to 48 hours
time reconstituted docetaxel remained in solution ([2]; Example 11: docetaxel-sodium oleate reconstituted with WFI or 2.5% glycerol): 2 hours, 4 hours, 6 hours, 8 hours or 24 hours
time docetaxel remained soluble and formulation stable upon dilution ([2]; Example 12: oleate liposome, dilution 1:10 in D5W): up to 48 hours
drug to lipid molar percent ratio [3, 5]: 4-6%
efficiency of incorporation of drug into liposome [3, 5]: 56%
incorporation of the drug into liposome ([3]; conventional process: drug added to lipid before liposome preparation (Immordino et al.)): 0.3 to 0.7 mg/mL
incorporation of docetaxel into liposome ([4]; docetaxel added after liposome preparation): 5 mg/mL
increase in solubility of the drug versus lipid alone ([4]; docetaxel added after liposome preparation vs 0.3 mg/mL): more than 10 fold
drug to lipid molar ratio [4, 6]: 8%
efficiency of incorporation of docetaxel into liposome [4, 6]: about 100%
